Key:
[1] = system: mixture micelles, which were prepared from phospholipid (egg lecithin) and ethanol; assay: Anti-oxidative activity: oxidation of mixture micelles (egg lecithin and ethanol) by ferrous-ion/ascorbic acid, thiobarbituric acid readout; assay type: biochemical; details: for Rate of inhibition (%): 25 °C, 15 min, ferrous sulfate/sodium ascorbate; for inhibition of oxidation: summary in words of the micelle oxidation results
Method: Anti-oxidative activity of the compounds prepared in example 1 and example 4 were determined using, as an index, oxidation of mixture micelles, which were prepared from phospholipid (egg lecithin) and ethanol, by ferrous-ion/ascorbic acid
To a solution of approx. 78 mg of egg lecithin in 2 ml of ethanol was added gradually 5 mM HEPES buffer solution (pH 7.2), under sonication (50 W) and ice-cooling, to make a 100-ml suspension. To 1,000 µ l of the suspension were added 200 µ l of 2.6 x 10⁻⁴ M solution of one of the test compounds in 50 v/v % ethanol, 50 µ l of 5.0 x 10⁻⁵ M sodium ascorbate solution in water and 50 µ l of 2.5 x 10⁻⁶ M ferrous sulfate solution in water. The mixture was placed in a water bath at 25 °C for 15 min for oxidation. Instantly after the reaction, 50 µ l of 0.1 % hydroquinone solution in ethanol was added to stop the reaction. To the mixture were added 200 µ l of 20 w/v % trichloroacetic acid and 2,000 µ l of 50 v/v % acetic acid containing thiobarbituric acid (Merck) at the concentration of 0.35 %, followed by heating for 15 min under reflux at 100 °C. After cooling, absorp tion within the range of 450-600 nm was measured by spectrophotography, within which range increase in absorbance at approx. 530-540 nm was determined. […]

[2] = system: lens; assay: Anti-oxidative activity in a model employing UV-induced oxidation of the lens
[3] = Final concentration 4.0 x 10⁻⁵ (unit not given; M)
[4] = Final concentration 4.0 x 10⁻⁶ (unit not given; M)

Cc1c(C)c2c(c(C)c1OP(=O)([O-])OC1=C(O)[C@@H]([C@@H](O)CO)OC1=O)CCC(C)(CCCC(C)CCCC(C)C)O2.[K+] (stereo partly drawn) [Example 1, potassium salt of phosphoric acid (L-ascorbic acid-2-0)(2,5,7,8-tetramethyl-2-(4,8-dimethylnonyl)chromanyl-6) ester]
Rate of inhibition (%) [1, 3]: 94.44%
Rate of inhibition (%) [1, 4]: 89.57%
inhibition of oxidation [1]: nearly complete inhibition of oxidation
inhibition of accumulation of malonedialdehyde [2]: significant inhibition

Cc1c(C)c2c(c(C)c1OP(=O)([O-])OC1=C(O)[C@@H]([C@@H](O)CO)OC1=O)CCC(C)(CCCC(C)CCCC(C)CCCC(C)CCCC(C)C)O2.[K+] (stereo partly drawn) [Example 4, potassium salt of phosphoric acid (L-ascorbic acid-2-0)(2,5,7,8-tetramethyl-2-(4,8,12,16-tetramethylheptadecyl)chromanyl-6) ester]
Rate of inhibition (%) [1, 3]: 99.90%
Rate of inhibition (%) [1, 4]: 95.22%
inhibition of oxidation [1]: nearly complete inhibition of oxidation
inhibition of accumulation of malonedialdehyde [2]: significant inhibition

From EP0306904A2, “Phosphoric acid diesters and salts thereof” (Senju Pharmaceutical Co., Ltd., priority 1987, dated 1989)
